In patent US20240016781A1, “TREATMENT OF KRAS MUTANT CANCERS” (MEI Pharma, Inc., priority 2020, published 2024):
Where “and” joins values, the source holds several entries; their conditions need not be identical. Equal values may be shown once.

Experiments:
Test in all cases: 72-hour CellTiter-Glo 2.0 growth inhibition screen (single agent, 9x9 combination dose matrix)
Assay type in all cases: cell-based
HCC44 = details: HCC44, Lung; growth inhibition (GI), AUC, single agent, 72 h
Description: (§1) Growth inhibition was determined using a 72-hour CellTiter-Glo®2.0 proliferation assay. Combination format was a 9×9 dose matrix. Six of the 20 cell lines received the original two combinations whilst the remaining 14 cell lines received two additional combinations resulting in four combinations in total. Results have been supplied as both Chalice Analyzer files (.mcc) and raw luminescence data.
(§2) Cell lines that have been preserved in liquid nitrogen are thawed and expanded in growth media (see Appendix I). Once cells have reached expected doubling times, screening begins. Cells are seeded in 25 μl of growth media in black 384-well tissue culture treated plates at 500 cells per well (as noted in Analyzer). Cells are equilibrated in assay plates via centrifugation and placed at 37° C. 5% CO2 for twenty-four hours before treatment. […] Compounds are transferred to assay plates using and Echo acoustic liquid handling system. […] of each compound was added at the appropriate concentration for all combination dose points. Therefore, final assay volume would be 25.05 μl. Assay plates are incubated with compound for 3 days and are then analyzed using CellTiter-Glo 2.0. All data points are collected via automated processes and are subject to quality control and analyzed.
(§3) If T≥V_0:100*(1−(T−V_0)/(V−V_0)) • where T is the signal measure for a test article, V is the untreated/vehicle-treated control measure, and Vo is the untreated/vehicle control measure at time zero (also colloquially referred as TO plates). This formula is derived from the Growth Inhibition calculation used in the National Cancer Institute's NCI-60 high throughput screen. For the purposes of this disclosure, all data analysis was performed in Growth Inhibition (except where noted).
(§4) Inhibition is also provided as a measure of cell viability. […] Inhibition of 100% represents no doubling of cell numbers during the treatment window. Both cytostatic and cytotoxic treatments can yield an Inhibition percentage of 100%. Inhibition percentage is calculated as the following: […]
(§5) The fractional inhibition for each component agent and combination point in the matrix is calculated relative to the median of all untreated/vehicle-treated control wells. The Synergy Score equation integrates the experimentally-observed activity volume at each point in the matrix in excess of a model surface numerically derived from the activity of the component agents using the Loewe model for additivity. Additional terms in the Synergy Score equation (above) are used to normalize for various dilution factors used for individual agents and to allow for comparison of synergy scores across an entire experiment. The inclusion of positive inhibition gating or an Idata multiplier removes noise near the zero-effect level, and biases results for synergistic interactions at that occur at high activity levels. Combinations with higher maximum Growth Inhibition (GI) effects or those which are synergistic at low concentrations will have higher Synergy Scores.
(§6) The CI is a rough estimate of how much drug was needed in combination relative to the single agent doses required to achieve the chosen effect level. CI values in the range of 0.5-0.7 are typical for in vitro measurements of current clinical combinations. The CI error (σCI) is calculated using standard error propagation through the CI calculation based on the isobologram errors. In the Chalice Analyzer, the Best CI is reported from the many CI values calculated for each Icut crossing combination. Among all the measured CI values, the one with the largest single-to-noise level (1−CI)/σCI is reported as the Best CI. Best CI Level is the effect level from which the CI is calculated.

SW48 KRAS (G12C/+) = system: SW48 KRAS (G12C/+)
Description: as §1, §2, §3, §4, §5, §6

HCC1171 = details: HCC1171, Lung; growth inhibition (GI), AUC, single agent, 72 h
Description: as §1, §2, §3, §4, §5, §6

LS-513 = system: LS-513
Description: as §1, §2, §3, §4, §5, §6

NCI-H23 = system: NCI-H23
Description: as §1, §2, §3, §4, §5, §6

SW837 = system: SW837
Description: as §1, §2, §3, §4, §5, §6

TOV-21G = details: TOV-21G, Ovary; growth inhibition (GI), AUC, single agent, 72 h
Description: as §1, §2, §3, §4, §5, §6

NCI-H1792 = system: NCI-H1792
Description: as §1, §2, §3, §4, §5, §6

NCI-H1373 = system: NCI-H1373
Description: as §1, §2, §3, §4, §5, §6

NCI-H358 = system: NCI-H358
Description: as §1, §2, §3, §4, §5, §6

KYSE-410 = system: KYSE-410
Description: as §1, §2, §3, §4, §5, §6

HPAF-II = system: HPAF-II
Description: as §1, §2, §3, §4, §5, §6

NCI-H2030 = system: NCI-H2030
Description: as §1, §2, §3, §4, §5, §6

Panc 04.03 = system: Panc 04.03
Description: as §1, §2, §3, §4, §5, §6

SW48 = system: SW48
Description: as §1, §2, §3, §4, §5, §6

AsPC-1 = system: AsPC-1
Description: as §1, §2, §3, §4, §5, §6

Gp2D = system: Gp2D
Description: as §1, §2, §3, §4, §5, §6

MIA PaCa-2 = system: MIA PaCa-2
Description: as §1, §2, §3, §4, §5, §6

C=C(F)C(=O)N1CCN(c2nc(OC[C@@H]3CCCN3C)nc3c2CCN(c2cccc4cccc(Cl)c24)C3)C[C@@H]1CC#N [MRTX849]
Response Area (HCC44): 3.02 | HSA volume (SW48 KRAS (G12C/+)): 4.53 | Loewe Volume (SW48 KRAS (G12C/+)): 4.75 and 2.96 | Response Area (SW48 KRAS (G12C/+); SW48 KRAS (G12C/+), Colorectal, growth inhibition (GI), AUC, single agent, 72 h): 2.88 | Response Area (HCC1171): 5.95 | HSA volume (LS-513): 0.51 and 0.34 | Loewe Volume (LS-513): 0.85 and 0.46 | Response Area (LS-513; LS-513, Colorectal, growth inhibition (GI), AUC, single agent, 72 h): 1.56 | HSA volume (NCI-H23): 5.10 and 2.97 | Loewe Volume (NCI-H23): 4.80 and 2.46 | Response Area (NCI-H23; NCl-H23, Lung, growth inhibition (GI), AUC, single agent, 72 h): 4.15 | HSA volume (SW837): 6.87 and 4.50 | Loewe Volume (SW837): 5.57 | Response Area (SW837; SW837, Colorectal, growth inhibition (GI), AUC, single agent, 72 h): 5.55 | Response Area (TOV-21G): 2.28 | HSA volume (NCI-H1792): 4.71 and 3.40 | Loewe Volume (NCI-H1792): 5.13 and 3.37 | Response Area (NCI-H1792; NCl-H1792, Lung, growth inhibition (GI), AUC, single agent, 72 h): 3.02 | HSA volume (NCI-H1373): 2.06 and 1.03 | Response Area (NCI-H1373; NCl-H1373, Lung, growth inhibition (GI), AUC, single agent, 72 h): 4.82 | HSA volume (NCI-H358): 2.90 | Response Area (NCI-H358; NCl-H358, Lung, growth inhibition (GI), AUC, single agent, 72 h): 5.85 | Bliss Volume (KYSE-410): 7.25 and 5.69 | HSA volume (KYSE-410): 2.25 and 1.80 | Loewe Volume (KYSE-410): 6.19 and 5.14 | Response Area (KYSE-410; KYSE-410, Esophageal, growth inhibition (GI), AUC, single agent, 72 h): 2.24 | HSA volume (HPAF-II): 1.34 and 0.93 | Response Area (HPAF-II; HPAF-II, Pancreas, growth inhibition (GI), AUC, single agent, 72 h): 2.04 | HSA volume (NCI-H2030): 1.90 and 1.28 | Response Area (NCI-H2030; NCl-H2030, Lung, growth inhibition (GI), AUC, single agent, 72 h): 2.65 | HSA volume (Panc 04.03): 0.64 and 0.37 | Loewe Volume (Panc 04.03): 3.31 and 1.76 | Response Area (Panc 04.03; Panc 04.03, Pancreas, growth inhibition (GI), AUC, single agent, 72 h): 2.20 | Bliss Volume (SW48): 9.14 and 4.79 | HSA volume (SW48): 3.40 and 2.30 | Loewe Volume (SW48): 6.95 and 4.49 | Response Area (SW48; SW48, Colorectal, growth inhibition (GI), AUC, single agent, 72 h): 2.78 | Loewe Volume (AsPC-1): 0.71 and 0.37 | Response Area (AsPC-1; AsPC-1, Pancreas, growth inhibition (GI), AUC, single agent, 72 h): 2.27 | Loewe Volume (Gp2D): 0.46 and 0.37 | Response Area (Gp2D; Gp2D, Colorectal, growth inhibition (GI), AUC, single agent, 72 h): 1.86 | HSA volume (MIA PaCa-2): 5.25 and 2.97 | Loewe Volume (MIA PaCa-2): 4.29 and 2.30
